Literature values, collected in patent US8841476B2, “Preparation of crystalline ezatiostat hydrochloride ansolvate form D” (Telik, Inc., priority 2010, dated 2014).
Like-named read-outs stand apart in the source and are kept apart here.

Assays:
[1] = system: HL-60 promyelocytic leukemia cells; settings: in vitro
[2] = in vitro
[3] = in vivo
[4] = system: hematopoietic progenitor cells in normal human peripheral blood
[5] = ezatiostat hydrochloride in a liposomal injectable formulation, MDS trial, Raza et al. 2009

CCOC(=O)[C@@H](N)CCC(=O)N[C@@H](CSCc1ccccc1)C(=O)N[C@@H](C(=O)OCC)c1ccccc1 [Ezatiostat]
differentiation of HL-60 promyelocytic leukemia cells [1]: induce the differentiation | potentiation of the activity of cytotoxic agents [2]: potentiate the activity of cytotoxic agents | potentiation of the activity of cytotoxic agents [3]: potentiate the activity of cytotoxic agents | colony formation of hematopoietic progenitor cells [4]: stimulate colony formation of all three lineages | white blood cell production (animals in which white blood cells were depleted by treatment with cisplatin or fluorouracil): increase white blood cell production | white blood cell production (normal animals): increase white blood cell production | hematologic improvement [5]: multi-lineage hematologic improvement | tolerability [5]: well tolerated
